Starred links: 1 amine or outer side, 2 acyl side, 3 side chain; linkers in the order of their positions; H or OH if unused. Non-standard residues stand in square brackets, D forms with d. Residues, ends and D or L forms follow the SMILES beside them. Groups on a side chain read outwards from the residue. *: point of attachment. X1 = CCCCCCCCCCCCCCCC(=O)N[C@@H](CCC(=O)N[C@@H](CCC(=O)N[C@@H](CCC(=O)NCCCOCCOCCOCCCNC(=O)CCC(=O)NCCCOCCOCCOCCCNC(=O)CCC(=O)NCCCOCCOCCOCCCN*)C(=O)O)C(=O)O)C(=O)O; X4 = CCCCCCCCCCCCCCCCCC(=O)N[C@@H](CCC(=O)N[C@@H](CCC(=O)N[C@@H](CCC(=O)NCCCOCCOCCOCCCNC(=O)CCC(=O)NCCCOCCOCCOCCCN*)C(=O)O)C(=O)O)C(=O)O; Suc = O=C(CCC(=O)[*:2])[*:1]; αMeK = C[C@](N)(CCCCN)C(=O)O; Aib = CC(C)(N)C(=O)O
Target: T1, RXFP1 (Homo sapiens, UniProt Q9HBX9)
T1 construct: OVCAR5 cells expressing endogenous RXFP1; endogenous in cells; host or cells: OVCAR5
T1 sequence (Q9HBX9 1-757): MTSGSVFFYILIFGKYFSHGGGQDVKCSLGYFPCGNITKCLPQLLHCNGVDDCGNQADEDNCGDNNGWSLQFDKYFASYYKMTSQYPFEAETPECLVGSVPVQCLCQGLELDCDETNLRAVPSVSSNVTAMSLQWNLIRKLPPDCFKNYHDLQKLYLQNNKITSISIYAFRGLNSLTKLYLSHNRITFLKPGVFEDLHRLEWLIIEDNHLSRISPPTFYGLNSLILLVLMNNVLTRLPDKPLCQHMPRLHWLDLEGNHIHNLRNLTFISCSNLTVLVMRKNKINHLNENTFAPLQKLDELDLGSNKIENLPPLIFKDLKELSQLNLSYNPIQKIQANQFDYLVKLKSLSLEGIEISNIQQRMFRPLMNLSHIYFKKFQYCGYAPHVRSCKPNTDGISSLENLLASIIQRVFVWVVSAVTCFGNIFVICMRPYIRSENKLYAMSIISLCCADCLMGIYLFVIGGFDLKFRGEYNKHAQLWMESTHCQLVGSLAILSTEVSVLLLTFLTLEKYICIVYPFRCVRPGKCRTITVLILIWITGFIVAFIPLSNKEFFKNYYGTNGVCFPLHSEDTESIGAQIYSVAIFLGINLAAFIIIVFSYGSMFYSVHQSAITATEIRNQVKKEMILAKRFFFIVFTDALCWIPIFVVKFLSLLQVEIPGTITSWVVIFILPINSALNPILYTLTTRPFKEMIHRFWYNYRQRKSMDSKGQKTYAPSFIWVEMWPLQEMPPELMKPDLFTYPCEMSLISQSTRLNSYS
Assay: OVCAR5 cAMP assay (HTRF)
Assay type: cell-based
Details: for EC50: OVCAR 5 cells expressing endogenous RXFP1, cAMP readout; for Emax: OVCAR 5 cells, maximal cAMP relative to H2-relaxin
Excerpt: OVCAR5 cells expressing endogenous RXFP1 were used to test RXP1 agonist properties of peptides of the invention, and in particular of the peptides of sequence SEQ ID NO: 1-97.
Since RXFP1 is a Gs coupled GPCR, cAMP was used as readout of RXFP1 activation.
Isobutyl Methyl Xanthine (IBMX) was used to inhibit phosphodiesterase activity facilitating cAMP measurements. HTRF (Homogenous Time Resolved Fluorescence) technology was used to detect cAMP due to its great sensitivity.
In summary, OVCAR5 were grown in regular medium (RPMI) containing 10% fetal calf serum (FCS) and 1% antibiotics (penicillin/streptomycin).
Before the experiments, cells were detached with accutase and incubated for 40 minutes at 37° C. with 1 mM (3-isobutyl-1-methylxanthine) IBMX.
Cells were then distributed in 384 black well plates containing increasing concentrations of the different peptides in a fix volume of medium (without FCS).
After an incubation of 30 min at 37° C. in an humid incubator in 5% CO2, the reaction was stopped by adding a fixed volume of a solution containing a lysis buffer and cAMP-D2 (cAMP labeled with the dye d2) and the anti cAMP antibody linked to Europium and used for cAMP detection.
Readout of the experiment were performed on a fluorimeter allowing HTRF measurement. Activation curves were generated by plotting the intracellular value of cAMP versus log 10 of the compound concentration.
The 50% activation concentration (EC50) was calculated by nonlinear regression using the sigmoidal dose-response (variable slope) equation with Prism 5 software.
Emax % was determined as the maximal intracellular value of cAMP for test compound (upper limit of cAMP vs concentration curve) divided by the maximal intracellular value of cAMP for H2-relaxin determined in the same test occasion multiplied by 100. Emax %=100×[cAMPtest cpd]/[cAMPH2-Rlx]

EC50 [nM]	Emax [%]	Compound
0.14	90	CCCCCCCCCCCCCCCCCC(=O)N[C@@H](CCC(=O)N[C@@H](CCC(=O)N[C@@H](CCC(=O)NCCCOCCOCCOCCCNC(=O)CCC(=O)NCCCOCCOCCOCCCNC(=O)CCC(=O)NCCCC[C@H](NC(=O)CNC(=O)[C@H](CCC(=O)O)NC(=O)C(C)(C)NC(=O)C(C)(C)NC(=O)[C@@H](NC(=O)[C@H](CCCCNC(C)=O)NC(=O)[C@H](C)NC(=O)[C@H](CCCNC(=N)N)NC(=O)[C@@H](NC(=O)[C@H](CCCCN)NC(=O)[C@H](CCC(=O)O)NC(=O)[C@H](CCCNC(=N)N)NC(=O)CNC(=O)[C@H](CCC(=O)O)NC(=O)[C@H](CC(C)C)NC(C)=O)C(C)C)[C@@H](C)CC)C(=O)N[C@@H](CO)C(=O)N[C@H](C(=O)N[C@@H](Cc1ccccc1)C(=O)N[C@@H](CO)C(=O)N[C@@](C)(CCCCN)C(=O)N[C@@H](CCCNC(=N)N)C(=O)N[C@@H](C)C(=O)N[C@@H](CCCCNC(C)=O)C(N)=O)[C@@H](C)O)C(=O)O)C(=O)O)C(=O)O [compound 34] (Ac-LEGREKVRAK(Ac)I[Aib][Aib]EGK([Suc-X4])STFS[αMeK]RAK(Ac)-NH2)
0.83	93	CCCCCCCCCCCCCCCC(=O)N[C@@H](CCC(=O)N[C@@H](CCC(=O)N[C@@H](CCC(=O)NCCCOCCOCCOCCCNC(=O)CCC(=O)NCCCOCCOCCOCCCNC(=O)CCC(=O)NCCCOCCOCCOCCCNC(=O)CCC(=O)NCCCC[C@H](NC(=O)CNC(=O)[C@H](CCC(=O)O)NC(=O)C(C)(C)NC(=O)C(C)(C)NC(=O)[C@@H](NC(=O)[C@H](CCCCNC(C)=O)NC(=O)[C@H](C)NC(=O)[C@H](CCCNC(=N)N)NC(=O)[C@@H](NC(=O)[C@H](CCCCN)NC(=O)[C@H](CCC(=O)O)NC(=O)[C@H](CCCNC(=N)N)NC(=O)CNC(=O)[C@H](CCC(=O)O)NC(=O)[C@H](CC(C)C)NC(C)=O)C(C)C)[C@@H](C)CC)C(=O)N[C@@H](CO)C(=O)N[C@H](C(=O)N[C@@H](Cc1c[nH]c2ccccc12)C(=O)N[C@@H](CO)C(=O)N[C@@](C)(CCCCN)C(=O)N[C@@H](CCCNC(=N)N)C(=O)N[C@@H](C)C(=O)N[C@@H](CCCCNC(C)=O)C(N)=O)[C@@H](C)O)C(=O)O)C(=O)O)C(=O)O [compound 11] (Ac-LEGREKVRAK(Ac)I[Aib][Aib]EGK([Suc-X1])STWS[αMeK]RAK(Ac)-NH2)
1.19	95	CCCCCCCCCCCCCCCC(=O)N[C@@H](CCC(=O)N[C@@H](CCC(=O)N[C@@H](CCC(=O)NCCCOCCOCCOCCCNC(=O)CCC(=O)NCCCOCCOCCOCCCNC(=O)CCC(=O)NCCCOCCOCCOCCCNC(=O)CCC(=O)NCCCC[C@H](NC(=O)CNC(=O)[C@H](CCC(=O)O)NC(=O)C(C)(C)NC(=O)C(C)(C)NC(=O)[C@@H](NC(=O)[C@H](CCC(N)=O)NC(=O)[C@H](CCCCNC(C)=O)NC(=O)[C@H](CCCNC(=N)N)NC(=O)[C@@H](NC(=O)[C@H](CCCCN)NC(=O)[C@H](CCC(=O)O)NC(=O)[C@H](CCCNC(=N)N)NC(=O)CNC(=O)[C@H](CCC(=O)O)NC(=O)[C@H](CC(C)C)NC(C)=O)C(C)C)[C@@H](C)CC)C(=O)N[C@@H](CO)C(=O)N[C@H](C(=O)N[C@@H](Cc1c[nH]c2ccccc12)C(=O)N[C@@H](CO)C(=O)NC(C)(C)C(=O)N[C@@H](CCCNC(=N)N)C(=O)N[C@@H](CCCCN)C(=O)N[C@@H](CCCCNC(C)=O)C(N)=O)[C@@H](C)O)C(=O)O)C(=O)O)C(=O)O [compound 65] (Ac-LEGREKVRK(Ac)QI[Aib][Aib]EGK([Suc-X1])STWS[Aib]RKK(Ac)-NH2)
0.78	97	CCCCCCCCCCCCCCCC(=O)N[C@@H](CCC(=O)N[C@@H](CCC(=O)N[C@@H](CCC(=O)NCCCOCCOCCOCCCNC(=O)CCC(=O)NCCCOCCOCCOCCCNC(=O)CCC(=O)NCCCOCCOCCOCCCNC(=O)CCC(=O)NCCCC[C@H](NC(=O)CNC(=O)[C@H](CCC(=O)O)NC(=O)C(C)(C)NC(=O)C(C)(C)NC(=O)[C@@H](NC(=O)[C@H](CCCCNC(C)=O)NC(=O)[C@H](C)NC(=O)[C@H](CCCNC(=N)N)NC(=O)[C@@H](NC(=O)[C@H](CCCCN)NC(=O)[C@H](CCC(=O)O)NC(=O)[C@H](CCCNC(=N)N)NC(=O)CNC(=O)[C@H](CCC(=O)O)NC(=O)[C@H](CC(C)C)NC(C)=O)C(C)C)[C@@H](C)CC)C(=O)N[C@@H](CO)C(=O)N[C@H](C(=O)N[C@@H](Cc1c[nH]c2ccccc12)C(=O)N[C@@H](CO)C(=O)NC(C)(C)C(=O)N[C@@H](CCCNC(=N)N)C(=O)N[C@@H](CCCCNC(C)=O)C(=O)N[C@@H](CCCNC(=N)N)C(N)=O)[C@@H](C)O)C(=O)O)C(=O)O)C(=O)O [compound 69] (Ac-LEGREKVRAK(Ac)I[Aib][Aib]EGK([Suc-X1])STWS[Aib]RK(Ac)R-NH2)
